For one experiment, the system named is PBMCs. The experiment can be described thus: PBMC assay, IL-6 release (HTRF). Particulars: PBMCs from healthy donors, overnight, IL-6 induction by HTRF, average of quadruplicate. It counts as cell-based. As to the method:
Whole peripheral blood was obtained from healthy donors. PBMCs were isolated from peripheral blood by density gradient centrifugation. […] The plasma layer containing PBMCs was poured into a new tube and washed twice. Isolated PBMCs were either used fresh or thawed from previously frozen. 1×10^5 PBMCs were cultured with titrating concentrations of compounds of Formula I overnight followed by assaying for cytokines by homogeneous time resolved fluorescence (HTRF).
(In general: Time-resolved FRET reads energy transfer from a long-lived donor to a nearby acceptor.)

The next experiment concerns the target T1, TLR7 (Homo sapiens, UniProt Q9NYK1).
T1 sequence (Q9NYK1 27-1049): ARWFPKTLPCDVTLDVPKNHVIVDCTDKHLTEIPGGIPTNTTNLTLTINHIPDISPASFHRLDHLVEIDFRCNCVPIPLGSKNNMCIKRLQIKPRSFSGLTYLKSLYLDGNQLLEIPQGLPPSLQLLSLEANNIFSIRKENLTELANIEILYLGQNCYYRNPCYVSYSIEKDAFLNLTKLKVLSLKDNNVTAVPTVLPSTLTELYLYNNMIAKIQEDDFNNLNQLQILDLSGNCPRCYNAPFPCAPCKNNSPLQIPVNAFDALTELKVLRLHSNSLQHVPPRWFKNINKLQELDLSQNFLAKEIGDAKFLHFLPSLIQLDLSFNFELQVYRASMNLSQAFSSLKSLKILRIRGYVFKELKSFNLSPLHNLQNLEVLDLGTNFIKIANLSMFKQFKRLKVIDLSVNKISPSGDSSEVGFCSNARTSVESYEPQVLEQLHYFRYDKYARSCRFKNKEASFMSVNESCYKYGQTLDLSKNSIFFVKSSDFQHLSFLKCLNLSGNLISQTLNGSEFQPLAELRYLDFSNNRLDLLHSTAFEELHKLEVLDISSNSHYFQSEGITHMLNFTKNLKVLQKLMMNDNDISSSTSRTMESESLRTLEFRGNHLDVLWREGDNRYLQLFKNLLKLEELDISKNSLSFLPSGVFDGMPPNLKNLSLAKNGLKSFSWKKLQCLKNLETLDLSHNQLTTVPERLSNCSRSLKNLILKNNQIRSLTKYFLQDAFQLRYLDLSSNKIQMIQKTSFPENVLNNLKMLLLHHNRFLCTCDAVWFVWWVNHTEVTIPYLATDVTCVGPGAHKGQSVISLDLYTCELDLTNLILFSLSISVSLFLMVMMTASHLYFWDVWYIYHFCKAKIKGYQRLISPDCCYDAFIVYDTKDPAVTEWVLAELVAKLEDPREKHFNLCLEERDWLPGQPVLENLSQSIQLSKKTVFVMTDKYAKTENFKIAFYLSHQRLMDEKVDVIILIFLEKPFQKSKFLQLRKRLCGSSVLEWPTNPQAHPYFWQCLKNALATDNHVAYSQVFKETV
Description: Reporter gene assay, HEK-Blue TLR7 reporter cells (SEAP). A general note: A reporter such as luciferase makes a cellular process visible.

The next experiment has as its target T2, TLR8 (Homo sapiens, UniProt Q9NR97).
T2 sequence (Q9NR97 27-1041): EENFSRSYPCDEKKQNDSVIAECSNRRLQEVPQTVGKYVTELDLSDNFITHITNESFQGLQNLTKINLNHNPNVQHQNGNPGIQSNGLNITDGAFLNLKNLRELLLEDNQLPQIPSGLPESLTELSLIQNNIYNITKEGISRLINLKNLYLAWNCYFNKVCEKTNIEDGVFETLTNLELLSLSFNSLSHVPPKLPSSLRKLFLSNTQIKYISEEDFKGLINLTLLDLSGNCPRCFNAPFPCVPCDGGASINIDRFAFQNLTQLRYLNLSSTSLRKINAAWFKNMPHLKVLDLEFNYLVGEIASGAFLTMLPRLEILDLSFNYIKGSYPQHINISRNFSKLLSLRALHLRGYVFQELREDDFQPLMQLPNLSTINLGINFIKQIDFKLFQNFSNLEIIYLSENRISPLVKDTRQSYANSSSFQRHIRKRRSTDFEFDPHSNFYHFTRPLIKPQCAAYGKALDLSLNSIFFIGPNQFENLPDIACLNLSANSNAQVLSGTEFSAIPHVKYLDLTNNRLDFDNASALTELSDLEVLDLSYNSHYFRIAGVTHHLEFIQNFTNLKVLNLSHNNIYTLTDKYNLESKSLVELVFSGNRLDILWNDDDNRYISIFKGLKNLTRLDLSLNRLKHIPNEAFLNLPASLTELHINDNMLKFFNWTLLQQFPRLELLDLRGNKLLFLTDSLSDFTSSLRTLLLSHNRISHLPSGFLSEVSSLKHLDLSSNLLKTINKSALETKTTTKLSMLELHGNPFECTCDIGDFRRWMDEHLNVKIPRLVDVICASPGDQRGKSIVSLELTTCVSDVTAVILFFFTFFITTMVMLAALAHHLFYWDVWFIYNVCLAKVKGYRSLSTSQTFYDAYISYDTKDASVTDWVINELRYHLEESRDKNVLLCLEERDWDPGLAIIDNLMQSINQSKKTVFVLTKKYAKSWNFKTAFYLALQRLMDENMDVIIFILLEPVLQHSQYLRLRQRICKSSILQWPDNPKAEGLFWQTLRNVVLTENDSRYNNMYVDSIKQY
The experiment can be described thus: Reporter gene assay, HEK-Blue TLR8 reporter cells (SEAP).

pEC50: −log10 of the molar value. Where only a bound is given, the exact number is not on record here.

Description for TLR7: (§1) 3×10^4 HEK-Blue™ TLR7 or 3×10^4 TLR8 reporter cells (InvivoGen, San Diego, CA) were treated with titrated (4-fold) amounts of test compound. […] Cells were incubated overnight at 37° C. and 5% CO2, then absorbance (620 and 655 nm) was read on a Synergy™ H1 microplate reader.
Description for TLR8: as §1

As for `CCCCc1nc2c(N)nc3ccsc3c2n1Cc1ccc(CN2CCN(C(=O)OC(C)(C)C)CC2)cc1` [Compound 153, tert-butyl 4-(4-((4-amino-2-butyl-1H-imidazo[4,5-d]thieno[3,2-b]pyridin-1-yl)methyl)benzyl)piperazine-1-carboxylate], the pEC50 (commonly −log10 of the EC50, conventionally taken in molar units) in the experiment on PBMCs is 6.38; at TLR7 it was 7.07; at TLR8, less than 6.00.
The matching figures for `CCCCc1nc2c(N)nc3ccsc3c2n1Cc1ccc(CNCc2ccc(CNC(=O)OC(C)(C)C)cc2)cc1` [Compound 155, tert-butyl (4-(((4-((4-amino-2-butyl-1H-imidazo[4,5-d]thieno[3,2-b]pyridin-1-yl)methyl)benzyl)amino)methyl)benzyl)carbamate]: 6.96, 6.35 and less than 6.00.
The like results for `CCCCc1nc2c(N)nc3ccsc3c2n1Cc1ccc(CNCCNC(=O)OC(C)(C)C)cc1` [Compound 160, tert-butyl (2-((4-((4-amino-2-butyl-1H-imidazo[4,5-d]thieno[3,2-b]pyridin-1-yl)methyl)benzyl)amino)ethyl)carbamate] were, in that order, 7.49, 8.06 and less than 6.00.
The matching figures for `CCCCc1nc2c(N)nc3ccsc3c2n1Cc1ccc(C=O)cc1` [Compound 164, 4-((4-amino-2-butyl-1H-imidazo[4,5-d]thieno[3,2-b]pyridin-1-yl)methyl)benzaldehyde]: less than 6.00, less than 6.00 and less than 6.00.
As to `CCCCc1nc2c(N)nc3ccsc3c2n1Cc1ccc(CN2CCN(CCNC(=O)OC(C)(C)C)CC2)cc1` [Compound 165, tert-butyl (2-(4-(4-((4-amino-2-butyl-1H-imidazo[4,5-d]thieno[3,2-b]pyridin-1-yl)methyl)benzyl)piperazin-1-yl)ethyl)carbamate], the pEC50 in the experiment with PBMCs is 7.19; at TLR7, 7.82; at TLR8, less than 6.00.
The like results for `CCCCc1nc2c(N)nc3ccsc3c2n1CCCCCO` [Compound 172, 5-(4-amino-2-butyl-1H-imidazo[4,5-d]thieno[3,2-b]pyridin-1-yl)pentan-1-ol] were, in that order, 6.24, 7.57 and less than 6.00.
The matching figures for `CCCCc1nc2c(N)nc3ccsc3c2n1CCCCCN=[N+]=[N-]` [Compound 173, 1-(5-azidopentyl)-2-butyl-1H-imidazo[4,5-d]thieno[3,2-b]pyridin-4-amine]: less than 6.00, less than 6.00 and less than 6.00.
The like results for `CCCCc1nc2c(N)nc3ccsc3c2n1CCCCCN1CCC(c2ccncc2)CC1` [Compound 174, 2-butyl-1-(5-(4-(pyridin-4-yl)piperidin-1-yl)pentyl)-1H-imidazo[4,5-d]thieno[3,2-b]pyridin-4-amine] were, in that order, 7.11, 7.68 and less than 6.00.
As for `CCCCc1nc2c(N)nc3ccsc3c2n1CCCCCN(CC)CC` [Compound 175, 2-butyl-1-(5-(diethylamino)pentyl)-1H-imidazo[4,5-d]thieno[3,2-b]pyridin-4-amine], the negative logarithm of the EC50 (pEC50) in the experiment with PBMCs is 7.00; on TLR7, 7.92; at TLR8 it was 6.42.
The like results for `CCCCc1nc2c(N)nc3ccsc3c2n1CCCCCN1CCN(CCN2CCOCC2)CC1` [Compound 176, 2-butyl-1-(5-(4-(2-morpholinoethyl)piperazin-1-yl)pentyl)-1H-imidazo[4,5-d]thieno[3,2-b]pyridin-4-amine] were, in that order, 7.24, 7.48 and less than 6.00.
The like results for `CCCCc1nc2c(N)nc3ccsc3c2n1CCCCCNCC(C)(C)N1CCOCC1` [Compound 177, 2-butyl-1-(5-((2-methyl-2-morpholinopropyl)amino)pentyl)-1H-imidazo[4,5-d]thieno [3,2-b]pyridin-4-amine] were, in that order, 6.57, 7.62 and 6.24.
The like results for `CCCCc1nc2c(N)nc3ccsc3c2n1CCCCCNCCCCCO` [Compound 178, 5-((5-(4-amino-2-butyl-1H-imidazo[4,5-d]thieno[3,2-b]pyridin-1-yl)pentyl)amino) pentan-1-ol] were, in that order, less than 6.00, 7.43 and less than 6.00.
As for `CCCCc1nc2c(N)nc3ccsc3c2n1CCCCCNCc1ccc(CO)cc1` [Compound 179, (4-(((5-(4-amino-2-butyl-1H-imidazo[4,5-d]thieno[3,2-b]pyridin-1-yl)pentyl)amino)methyl)phenyl)methanol], the pEC50 with PBMCs was 7.12; at TLR7, 7.92; at TLR8, 6.59.
On to `CCCCc1nc2c(N)nc3ccsc3c2n1CCCCCNCC(C)(C)O` [Compound 180, 1-((5-(4-amino-2-butyl-1H-imidazo[4,5-d]thieno[3,2-b]pyridin-1-yl)pentyl)amino)-2-methylpropan-2-ol], for which the pEC50 is 6.21 in the experiment on PBMCs, 7.08 on TLR7 and less than 6.00 on TLR8.
The matching figures for `CCCCc1nc2c(N)nc3ccsc3c2n1CCCCCN1CCNCC1` [Compound 182]: 6.80, 7.62 and less than 6.00.
The like results for `CCCCc1nc2c(N)nc3ccsc3c2n1CCCCCNCc1cc[nH]c1` [Compound 183, 1-(5-(((1H-pyrrol-3-yl)methyl)amino)pentyl)-2-butyl-1H-imidazo[4,5-d]thieno[3,2-b]pyridin-4-amine] were, in that order, less than 6.00, 7.47 and less than 6.00.
`CCCCc1nc2c(N)nc3ccsc3c2n1Cc1cccc(CN2CCN(C(=O)OC(C)(C)C)CC2)c1` [Compound 196, tert-butyl 4-(3-((4-amino-2-butyl-1H-imidazo[4,5-d]thieno[3,2-b]pyridin-1-yl)methyl)benzyl)piperazine-1-carboxylate]: the pEC50 in the experiment with PBMCs, on TLR7 and at TLR8 was less than 6.00 each time.
In the case of `CCCCc1nc2c(N)nc3ccsc3c2n1Cc1cccc(CNCc2cc[nH]c2)c1` [Compound 197, 1-(3-((((1H-pyrrol-3-yl)methyl)amino)methyl)benzyl)-2-butyl-1H-imidazo[4,5-d]thieno [3,2-b]pyridin-4-amine], the pEC50 was 6.54 in the experiment on PBMCs, 7.20 at TLR7 and 6.31 on TLR8.

These data come from patent US20250179088A9 (ZYMEWORKS BC INC., priority 2020, published 2025).
